In patent publication US11865181B2, “Peptidic materials that traffic efficiently to the cell cytosol and nucleus” (Yale University, priority 2017, dated 2024):
Where two headings read alike, the source gives them in different places. Positions of bridges follow the written chain, without caps; N, C: chain ends. Non-standard residues stand in square brackets, D forms with d. Residues, ends and D or L forms follow the SMILES beside them. R8 = C=CCCCCCC[C@@](C)(N)C(=O)O; S5 = C=CCCC[C@](C)(N)C(=O)O

Assays:
[1] = tested on: hDM2-overexpressing SJSA-1 cells; format: cell-based
Description: SJSA-1 cells were seeded into a 96-well plate (2,000 cells/well) and incubated overnight at 37° C. After washing twice in PBS, cells are incubated with peptide or Nutlin-3a (Santa Cruz Biotechnology, Santa Cruz, Calif.) in Opti-MEM (Invitrogen, Carlsbad, Calif.) for 24 hours. Cell viability was then assayed using CellTiter-Glo (Promega, Madison, Wis.) according to the manufacturer's protocol. Luminescence measurements were taken on a SpectraMax M5 plate reader (Molecular Devices, Sunnyvale, Calif.).
Previously it has been shown that the efficacy with which hydrocarbon-stapled peptides reach the cytosol correlates with their efficacy in cell-based assays (LaRochelle et al., J. Am. Chem. Soc., 2015, 137, 2536-2541). To examine whether the biological activity of these penta-arg peptides correlated with how efficiently they accessed the cytosol, cell viability assays were performed using N-acetylated versions of the peptides and hDM2-overexpressing SJSA-1 cells (FIG. 4 and FIG. 5).

[2] = tested on: hDM2-overexpressing SJSA-1 cells; settings: literature values (Bernal et al. 2007; 2010); read-out: previously reported EC50, SJSA-1 cell viability; cited from earlier work
[3] = tested on: HeLa cells; settings: cited from earlier work

| EC50 ([1]; 24 h) [µM] | Molecule | further results |
| --- | --- | --- |
| 1.9 | CC(=O)N[C@@H](CCCNC(=N)N)C(=O)N[C@@H](CO)C(=O)N[C@@H](CCC(N)=O)C(=O)N[C@@H](CCCNC(=N)N)C(=O)N[C@@H](CCCNC(=N)N)C(=O)N[C@@H](Cc1ccccc1)C(=O)N[C@]1(C)CCCCCCC=CCCC[C@@](C)(C(=O)N[C@@H](CCC(=O)O)C(=O)N[C@@H](CC(N)=O)C(N)=O)NC(=O)[C@H](CC(C)C)NC(=O)[C@H](CC(C)C)NC(=O)[C@H](CCCNC(=N)N)NC(=O)[C@H](Cc2c[nH]c3ccccc23)NC(=O)[C@H](CC(=O)O)NC(=O)[C@H](CCCNC(=N)N)NC1=O [BP1.2^Ac, Ac-RSQRRFR8RDWRLLS5EN-NH2] (Ac-RSQRRF[R8]RDWRLL[S5]EN-NH2; staple 7-14) | – |
| 7.7 | CC(=O)N[C@@H](CCCNC(=N)N)C(=O)N[C@@H](CO)C(=O)N[C@@H](CCC(N)=O)C(=O)N[C@@H](CCC(=O)O)C(=O)N[C@@H](CCCNC(=N)N)C(=O)N[C@@H](Cc1ccccc1)C(=O)N[C@]1(C)CCCCCCC=CCCC[C@@](C)(C(=O)N[C@@H](CCCNC(=N)N)C(=O)N[C@@H](CCCNC(=N)N)C(N)=O)NC(=O)[C@H](CC(C)C)NC(=O)[C@H](CCCNC(=N)N)NC(=O)[C@H](CCCCN)NC(=O)[C@H](Cc2c[nH]c3ccccc23)NC(=O)[C@H](CC(C)C)NC(=O)[C@H](CC(=O)O)NC1=O [BP1.4^Ac, Ac-RSQERFR8DLWKRLS5RR-NH2] (Ac-RSQERF[R8]DLWKRL[S5]RR-NH2; staple 7-14) | – |
| 7.7 | CC(=O)N[C@@H](CC(C)C)C(=O)N[C@@H](CCCNC(=N)N)C(=O)N[C@@H](CCCNC(=N)N)C(=O)N[C@@H](CCC(=O)O)C(=O)N[C@H](C(=O)N[C@@H](Cc1ccccc1)C(=O)N[C@]1(C)CCCCCCC=CCCC[C@@](C)(C(=O)N[C@@H](CCCNC(=N)N)C(=O)N[C@@H](CC(N)=O)C(N)=O)NC(=O)[C@H](CC(C)C)NC(=O)[C@H](CCCNC(=N)N)NC(=O)[C@H](CCCCN)NC(=O)[C@H](Cc2c[nH]c3ccccc23)NC(=O)[C@H](CCCNC(=N)N)NC(=O)[C@H](CC(=O)O)NC1=O)[C@@H](C)O [BP1.5^Ac, Ac-LRRETFR8DRWKRLS5RN-NH2] (Ac-LRRETF[R8]DRWKRL[S5]RN-NH2; staple 7-14) | – |
| 4.8 | CC(=O)N[C@@H](CC(C)C)C(=O)N[C@@H](CO)C(=O)N[C@@H](CCC(N)=O)C(=O)N[C@@H](CCC(=O)O)C(=O)N[C@H](C(=O)N[C@@H](C)C(=O)N[C@]1(C)CCCCCCC=CCCC[C@@](C)(C(=O)N[C@@H](CCCNC(=N)N)C(=O)N[C@@H](CCCNC(=N)N)C(N)=O)NC(=O)[C@H](CC(C)C)NC(=O)[C@H](CCCNC(=N)N)NC(=O)[C@H](CCCNC(=N)N)NC(=O)[C@H](Cc2c[nH]c3ccccc23)NC(=O)[C@H](CC(C)C)NC(=O)[C@H](CCCNC(=N)N)NC1=O)[C@@H](C)O [BP1.6F19A^Ac, Ac-LSQETAR8RLWRRLS5RR-NH2] (Ac-LSQETA[R8]RLWRRL[S5]RR-NH2; staple 7-14) | – |
| 1.9 | CC(=O)N[C@@H](CC(C)C)C(=O)N[C@@H](CO)C(=O)N[C@@H](CCC(N)=O)C(=O)N[C@@H](CCC(=O)O)C(=O)N[C@H](C(=O)N[C@@H](Cc1ccccc1)C(=O)N[C@]1(C)CCCCCCC=CCCC[C@@](C)(C(=O)N[C@@H](CCCNC(=N)N)C(=O)N[C@@H](CCCNC(=N)N)C(N)=O)NC(=O)[C@H](CC(C)C)NC(=O)[C@H](CCCNC(=N)N)NC(=O)[C@H](CCCNC(=N)N)NC(=O)[C@H](Cc2c[nH]c3ccccc23)NC(=O)[C@H](CC(C)C)NC(=O)[C@H](CCCNC(=N)N)NC1=O)[C@@H](C)O [BP1.6^Ac, Ac-LSQETFR8RLWRRLS5RR-NH2] (Ac-LSQETF[R8]RLWRRL[S5]RR-NH2; staple 7-14) | – |
| – | COc1ccc(C2=N[C@@H](c3ccc(Cl)cc3)[C@@H](c3ccc(Cl)cc3)N2C(=O)N2CCNC(=O)C2)c(OC(C)C)c1 [Nutlin-3a, reference compound] | EC50 [2]: ~7 µM; EC50 ([1]; 24 hours in Opti-MEM, N-acetylated peptides, read-out: EC50, decrease in SJSA-1 cell viability): 22.8 µM |
| – | Ac-LSQETFR8DLWKLLS5EN-NH2 (Ac-LSQETF[R8]DLWKLL[S5]EN-NH2; staple 7-14) [SAH-p53-4, N-acetylated SAH-p53-4, reference compound] | ability to breach the plasma membrane as judged by flow cytometry [3]: fails to effectively breach the plasma membrane; effect on SJSA-1 cell viability (in words) ([1]; concentrations as high as 60 μM, 24 hours): no decrease in viability |
